ChEMBL document CHEMBL1177790, “Activity of substituted thiophene sulfonamides against malarial and mammalian cyclin dependent protein kinases” (Bioorg Med Chem Lett, 2010)
Blank lines part the entries; values can stand above or below the compound they belong to.

Tests used:
[1] = target: T1, Protein kinase Pfmrk (Plasmodium falciparum, UniProt P90584); test: Inhibition of His6x-tagged Plasmodium falciparum Pfmrk expressed in Escherichia coli by microtiter plate scintillation counting
T1 sequence (P90584 whole entry): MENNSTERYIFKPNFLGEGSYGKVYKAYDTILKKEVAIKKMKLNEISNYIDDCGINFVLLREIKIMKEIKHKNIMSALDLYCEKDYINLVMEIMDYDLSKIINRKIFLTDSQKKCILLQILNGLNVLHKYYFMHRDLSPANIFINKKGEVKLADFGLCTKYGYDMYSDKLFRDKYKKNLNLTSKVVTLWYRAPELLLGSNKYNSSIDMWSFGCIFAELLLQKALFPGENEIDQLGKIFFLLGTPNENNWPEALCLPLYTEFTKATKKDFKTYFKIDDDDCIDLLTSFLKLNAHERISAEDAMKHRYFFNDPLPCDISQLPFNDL

[2] = target: Cyclin-dependent kinase 7/ cyclin H (Homo sapiens, UniProt P50613); test: Inhibition of human CDK7/Cyclin H/MAT1; type: protein-complex assay
[3] = target: CDK6/cyclin D1 (Homo sapiens, UniProt Q00534); test: Inhibition of human CDK6/Cyclin D1; type: protein-complex assay
[4] = target: Cyclin-dependent kinase 1/cyclin B1 (Homo sapiens, UniProt P06493); test: Inhibition of human CDK1/cyclin B; type: protein-complex assay
[5] = target: Cyclin-dependent kinase 2/cyclin A (Homo sapiens, UniProt P24941); test: Inhibition of human CDK2/Cyclin A; type: protein-complex assay
[6] = tested on: Plasmodium falciparum; test: Antimalarial activity against chloroquine-resistant Plasmodium falciparum W2 assessed as inhibition of [3H]hypoxanthine incorporation after 24 hrs by microtiter plate scintillation counting; type: functional, organism-based
[7] = tested on: RAW264.7; test: Cytotoxicity against mouse RAW264.7 cells after 24 hrs by MTT assay; type: cell-based; conditions: RAW264.7, 24 h
[8] = tested on: DU-145; test: Cytotoxicity against human DU145 cells after 24 hrs by MTT assay; type: functional, cell-based; conditions: DU-145, 24 h
[9] = tested on: LoVo; test: Cytotoxicity against human LoVo cells after 24 hrs by MTT assay; type: functional, cell-based
[10] = Cytotoxicity against human Hs578 cells after 24 hrs by MTT assay; type: functional, cell-based; conditions: Hs578, 24 h
[11] = tested on: MCF7; test: Cytotoxicity against human MCF7 cells after 24 hrs by MTT assay; type: functional, cell-based; conditions: MCF7, 24 h
[12] = Therapeutic index, IC50 for Plasmodium falciparum W2 to IC50 for mice (Mus musculus) RAW264.7 cells

Sequence of Cyclin-dependent kinase 7/ cyclin H (P51946 whole entry): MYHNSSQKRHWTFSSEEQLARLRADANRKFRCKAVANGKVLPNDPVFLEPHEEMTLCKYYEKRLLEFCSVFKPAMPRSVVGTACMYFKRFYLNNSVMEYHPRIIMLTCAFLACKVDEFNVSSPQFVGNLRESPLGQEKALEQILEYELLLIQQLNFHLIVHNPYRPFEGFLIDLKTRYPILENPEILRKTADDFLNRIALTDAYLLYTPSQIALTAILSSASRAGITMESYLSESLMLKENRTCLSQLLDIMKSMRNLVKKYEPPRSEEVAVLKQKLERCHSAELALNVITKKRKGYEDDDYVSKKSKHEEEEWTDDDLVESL
Sequence of Cyclin-dependent kinase 7/ cyclin H (P50613 whole entry): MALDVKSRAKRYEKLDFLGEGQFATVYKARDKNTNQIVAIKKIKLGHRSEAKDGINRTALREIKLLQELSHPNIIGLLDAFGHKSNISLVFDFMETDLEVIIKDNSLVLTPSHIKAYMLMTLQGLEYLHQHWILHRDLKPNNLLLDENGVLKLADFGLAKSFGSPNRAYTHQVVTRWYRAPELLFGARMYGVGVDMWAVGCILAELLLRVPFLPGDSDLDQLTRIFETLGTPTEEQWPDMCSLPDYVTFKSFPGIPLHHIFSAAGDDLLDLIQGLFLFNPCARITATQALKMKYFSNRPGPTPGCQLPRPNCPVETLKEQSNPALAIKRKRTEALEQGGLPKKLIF
Sequence of CDK6/cyclin D1 (P24385 whole entry): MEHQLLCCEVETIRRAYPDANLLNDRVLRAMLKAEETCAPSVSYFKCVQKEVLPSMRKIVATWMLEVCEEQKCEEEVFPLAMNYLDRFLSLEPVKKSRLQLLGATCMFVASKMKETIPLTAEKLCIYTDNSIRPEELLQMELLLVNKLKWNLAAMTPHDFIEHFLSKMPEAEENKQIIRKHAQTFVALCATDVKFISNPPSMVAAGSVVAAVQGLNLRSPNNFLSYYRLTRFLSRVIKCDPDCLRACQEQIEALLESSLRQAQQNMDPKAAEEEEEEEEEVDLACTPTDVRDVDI
Sequence of CDK6/cyclin D1 (Q00534 whole entry): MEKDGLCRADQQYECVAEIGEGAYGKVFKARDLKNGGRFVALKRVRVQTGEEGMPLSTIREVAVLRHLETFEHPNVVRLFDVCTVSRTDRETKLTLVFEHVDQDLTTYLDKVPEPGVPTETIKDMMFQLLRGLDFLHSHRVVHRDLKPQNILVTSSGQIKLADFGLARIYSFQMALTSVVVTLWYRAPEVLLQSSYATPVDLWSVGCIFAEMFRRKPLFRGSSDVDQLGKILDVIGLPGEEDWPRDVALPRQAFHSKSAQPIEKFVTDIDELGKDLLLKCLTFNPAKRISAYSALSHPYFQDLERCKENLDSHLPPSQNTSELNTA
Sequence of Cyclin-dependent kinase 1/cyclin B1 (P06493 whole entry): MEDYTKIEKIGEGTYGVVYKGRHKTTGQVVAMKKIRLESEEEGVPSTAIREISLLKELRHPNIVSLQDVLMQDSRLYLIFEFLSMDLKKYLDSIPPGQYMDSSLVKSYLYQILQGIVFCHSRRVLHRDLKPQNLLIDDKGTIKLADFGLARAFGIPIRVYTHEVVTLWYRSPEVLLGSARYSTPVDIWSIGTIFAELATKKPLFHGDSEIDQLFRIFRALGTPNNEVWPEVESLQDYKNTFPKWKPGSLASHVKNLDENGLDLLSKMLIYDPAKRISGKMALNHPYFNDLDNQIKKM
Sequence of Cyclin-dependent kinase 1/cyclin B1 (P14635 whole entry, further chain): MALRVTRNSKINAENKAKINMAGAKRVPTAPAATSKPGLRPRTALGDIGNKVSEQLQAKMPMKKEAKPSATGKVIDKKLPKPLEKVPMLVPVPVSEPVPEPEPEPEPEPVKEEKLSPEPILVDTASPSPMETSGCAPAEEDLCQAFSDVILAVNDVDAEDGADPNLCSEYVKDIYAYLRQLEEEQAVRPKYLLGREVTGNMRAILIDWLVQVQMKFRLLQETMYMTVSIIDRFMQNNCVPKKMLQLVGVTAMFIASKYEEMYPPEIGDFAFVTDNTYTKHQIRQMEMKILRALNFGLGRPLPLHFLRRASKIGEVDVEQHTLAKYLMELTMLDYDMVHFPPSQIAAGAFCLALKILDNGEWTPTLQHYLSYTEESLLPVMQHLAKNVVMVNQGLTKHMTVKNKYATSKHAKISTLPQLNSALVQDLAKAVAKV

SMILES: Cc1cccc(C)c1N(C(=O)CCl)S(=O)(=O)c1cc(Cl)sc1Cl
IC50 [1]: 20.7 µM

SMILES: Cc1ccc(N(C(=O)CCl)S(=O)(=O)c2c(Cl)sc(Cl)c2Cl)cc1
IC50 [1]: 40.1 µM

SMILES: O=C(CBr)N(c1ccccc1)S(=O)(=O)c1cc(Cl)sc1Cl
IC50 [1]: 0.6 µM
IC50 [2]: 33.4 µM
IC50 [3]: 34.9 µM
IC50 [4]: 21.5 µM
IC50 [5]: 28.5 µM
IC50 [6]: 23.3 µM
IC50 [7]: 89.5 µM
IC50 [8]: 91 µM
IC50 [9]: 71.6 µM
IC50 [10]: 51.1 µM
IC50 [11]: 62 µM

SMILES: Cc1ccc(Cl)cc1NS(=O)(=O)c1cc(Cl)ccc1Cl
IC50 [1]: 45.4 µM

SMILES: O=S(=O)(c1cc(Cl)sc1Cl)N(SC(Cl)(Cl)Cl)c1ccccc1
IC50 [1]: 29.7 µM

SMILES: O=S(=O)(Nc1ccc(Cl)cc1SC(Cl)(Cl)Cl)c1cc(Cl)sc1Cl
IC50 [1]: 19.7 µM

SMILES: O=S(=O)(Nc1cccc(C(F)(F)F)c1)c1cc(Cl)c(Cl)cc1Cl
IC50 [1]: 0.6 µM
IC50 [2]: 0.2 µM
IC50 [3]: 58.8 µM
IC50 [4]: 0.1 µM
IC50 [5]: 10 µM
IC50 [6]: 24.7 µM
IC50 [7]: 90.4 µM
IC50 [8]: 44.2 µM
IC50 [9]: 65.1 µM
IC50 [10]: 55.1 µM
IC50 [11]: 63.8 µM

SMILES: COc1ccc(S(=O)(=O)Nc2cccc(C(F)(F)F)c2)cc1
IC50 [1]: 48.4 µM

SMILES: Cc1ccc(NS(=O)(=O)c2cc(Cl)sc2Cl)cc1
IC50 [1]: 0.6 µM
IC50 [2]: 0.8 µM
IC50 [3]: 51.3 µM
IC50 [4]: 49.3 µM
IC50 [5]: 31.4 µM
IC50 [6]: 31 µM
IC50 [7]: 74.7 µM
IC50 [8]: 81.1 µM
IC50 [9]: 69.3 µM
IC50 [10]: 40.2 µM
IC50 [11]: 66.1 µM

SMILES: Cc1cc(C)c(NS(=O)(=O)c2ccc(Br)cc2)c(C)c1NS(=O)(=O)c1ccc(Br)cc1
IC50 [1]: 50.2 µM

SMILES: Cc1ccc(Cl)cc1S(=O)(=O)Nc1ccc(Cl)c(Cl)c1
IC50 [1]: 15.1 µM
IC50 [2]: 0.4 µM
IC50 [3]: 110 µM
IC50 [4]: 0.8 µM
IC50 [5]: 10.5 µM
IC50 [6]: 17 µM
IC50 [7]: 76.6 µM
IC50 [8]: 45.4 µM
IC50 [9]: 55 µM
IC50 [10]: 54 µM
IC50 [11]: 57.3 µM

SMILES: O=S(=O)(Nc1cc(Cl)cc(Cl)c1)c1cc(Cl)sc1Cl
IC50 [1]: 333 µM

SMILES: O=S(=O)(Nc1ccc(Cl)cc1)c1c(Cl)sc(Cl)c1Cl
IC50 [1]: 31.5 µM

SMILES: Cc1ccc(N(SC(Cl)(Cl)Cl)S(=O)(=O)c2cc(Cl)sc2Cl)cc1
IC50 [1]: 0.3 µM
IC50 [2]: 0.7 µM
IC50 [3]: 18 µM
IC50 [4]: 10.5 µM
IC50 [5]: 11.5 µM
IC50 [6]: 21.2 µM
IC50 [7]: 39.3 µM
IC50 [8]: 53 µM
IC50 [9]: 70.3 µM
IC50 [10]: 24.9 µM
IC50 [11]: 30.1 µM

SMILES: Cc1ccc(N(C(=O)C(Cl)Cl)S(=O)(=O)c2cc(Cl)sc2Cl)cc1
IC50 [1]: 127 µM

SMILES: O=C1Cc2c([nH]c3ccc([N+](=O)[O-])cc23)-c2ccccc2N1 [ALSTERPAULLONE]
IC50 [7]: 2.2 µM
IC50 [8]: 1.1 µM
IC50 [9]: < 1 µM
IC50 [10]: 1.9 µM
IC50 [11]: 2.7 µM

SMILES: O=C1Nc2ccccc2/C1=C1/Nc2ccccc2C1=O [INDIRUBIN]
IC50 [6]: 1.1 µM
IC50 [7]: 6.1 µM
IC50 [8]: 6.8 µM
IC50 [9]: 2.2 µM
IC50 [10]: 6.9 µM
IC50 [11]: 6.7 µM

SMILES: OC(c1cc(C(F)(F)F)nc2c(C(F)(F)F)cccc12)C1CCCCN1 (stereo not drawn) [MEFLOQUINE]
IC50 [6]: 0.1 µM
IC50 [7]: 6.5 µM
IC50 [8]: 14.4 µM
IC50 [9]: 7.9 µM
IC50 [10]: 12.1 µM
IC50 [11]: 10.6 µM
selectivity ratio [12]: 65

More lines, now with the values ahead:

IC50 [1]: 0.4 µM
SMILES: O=C(NNC(=O)c1ccccc1F)c1ccc2ccccc2c1

IC50 [1]: 0.2 µM
SMILES: Cc1ccccc1NC(=O)NC(=O)c1ccccc1Cl

IC50 [1]: 0.6 µM
SMILES: N#CC(NCC(O)c1ccccc1)c1ccc(Cl)c(Cl)c1 (stereo not drawn)

IC50 [1]: 16.5 µM
SMILES: O=S(=O)(Nc1ccc(C(F)(F)F)cc1)c1ccc(C(F)(F)F)cc1

IC50 [1]: 15.9 µM
SMILES: Cc1ccc(NS(=O)(=O)c2ccc(Br)cc2)cc1Cl

IC50 [1]: 17.4 µM
SMILES: NS(=O)(=O)c1cc([N+](=O)[O-])c(Cl)s1

IC50 [1]: 0.8 µM
SMILES: O=C(CBr)N(c1ccc(Cl)cc1)S(=O)(=O)c1cc(Cl)sc1Cl

IC50 [1]: 13.1 µM
SMILES: O=S(=O)(Nc1cccc(C(F)(F)F)c1)c1ccc(Cl)cc1

IC50 [1]: 14.9 µM
SMILES: O=S(=O)(Nc1ccccc1)c1cc(Cl)sc1Cl

IC50 [1]: 11 µM
SMILES: Cc1cc(Cl)ccc1NS(=O)(=O)c1cc(Cl)ccc1Cl
